Results as given in US7994204B2, “Binding inhibitor of sphingosine-1-phosphate” (Taisho Pharmaceutical Co., Ltd, priority 2006, dated 2011).

Tests used:
human Edg-1 (S1P1) = target: T1, human Edg-1 (S1P1) (Homo sapiens, UniProt P21453); test: S1P1 binding inhibition test (membrane, [33P]-S1P); conditions: for inhibition at 10 µM: compound 10 μM, [33P]-S1P 0.1 nM, human Edg-1 (S1P1) HEK-293 membrane fraction, read-out: Binding test (membrane) % inhibition (10 μM); for IC50: membrane system binding test, various concentrations
T1 construct: expressed in transfected cells; host or cells: HEK-293
Method: The membrane fraction was obtained by treating the cells with a solubilizing buffer (1 mM Tris/HCl, pH 7.2) for 10 minutes on ice, centrifuging at 1000×g for 5 minutes to remove insoluble fractions, and then centrifuging at 40000×g for 30 minutes at 4° C. The resulting membrane fraction was dissolved in a binding buffer (20 mM Tris-HCl, pH 7.4, 100 mM NaCl, 15 mM NaF, 2 mM deoxypyridoxine, 4 mg/mL fatty acid-free BSA), and then [^33P]-S1P (manufactured by ARC, final concentration 0.1 nM) and a DMSO solution (final concentration of the compound 10^−5 M, final concentration of DMSO 0.1%) of the test compound were added. Thereafter, the mixture was stirred and then treated for one hour at 30° C. Using a harvester, the membrane fraction was harvested onto unifilter-96 GF/C filter (manufactured by Perkin Elmer), washing was carried out four times with the binding buffer, and the filter was dried. Twenty five μL Microscint 0 (manufactured by Perkin Elmer) was added, and radioactivity was measured using Top Count NXT (manufactured by Packard) to calculate the amount (A) of [^33P]-S1P bound to the membrane fraction at the time when the compound was added.
The same procedure was carried out in the absence of the test compound, and the amount (B) of [^33P]-S1P bound was calculated. Further, the same procedure was carried out in the absence of the test compound by use of HEK-293 cells to which no Edg-1 (S1P1) gene was introduced, and the background amount (C) of [^33P]-S1P bound was calculated.
Inhibition rate (%)=[1−(A−C)/(B−C)]×100.
Moreover, the concentration required for a test compound to produce 50% inhibition of the binding caused in the absence of the test compound was also calculated (IC50). The above membrane system binding test was performed in the presence of a test compound at various concentrations to calculate the inhibition rate of Edg-1(S1P1) binding at each concentration according to the above equation, followed by calculating an IC50 value for each compound with data analysis software, Origin (Lightstone Corp., Japan).

T1 sequence (P21453 whole entry): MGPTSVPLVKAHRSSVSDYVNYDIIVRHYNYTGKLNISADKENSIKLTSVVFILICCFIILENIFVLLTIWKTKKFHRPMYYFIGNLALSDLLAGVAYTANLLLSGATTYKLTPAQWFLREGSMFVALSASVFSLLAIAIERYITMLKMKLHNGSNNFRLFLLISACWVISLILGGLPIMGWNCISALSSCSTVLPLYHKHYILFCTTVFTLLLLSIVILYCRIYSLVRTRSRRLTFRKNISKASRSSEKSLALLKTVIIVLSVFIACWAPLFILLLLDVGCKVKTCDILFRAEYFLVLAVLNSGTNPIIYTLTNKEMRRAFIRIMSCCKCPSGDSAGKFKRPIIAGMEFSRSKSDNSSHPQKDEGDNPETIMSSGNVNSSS

SMILES | inhibition at 10 µM (human Edg-1 (S1P1)) | IC50 (human Edg-1 (S1P1)) | melting point
CCn1c(C(C)NS(=O)(=O)c2ccc(Cl)c(Cl)c2)cnc1OC1CCCCC1 (centres unmarked) [Compound 216] | 92% | – | 180 to 181 °C
CCCCCCCCCCCCCCCCCCOc1ncc(C(C)NS(=O)(=O)c2ccc(Cl)c(Cl)c2)n1CC (centres unmarked) [Compound 238] | – | – | 117 to 118 °C
CCn1c(C(C)NS(=O)(=O)c2ccc(Cl)c(Cl)c2)cnc1OC1CCC1 (centres unmarked) [Compound 231] | 97.4% | – | 162 to 163 °C
CCn1c(C(C)NS(=O)(=O)c2ccc(Cl)c(Cl)c2)cnc1OCC(F)(F)F (centres unmarked) [Compound 224] | 87% | – | 133.5 to 134.5 °C
CCn1c(C(C)NS(=O)(=O)c2ccc(Cl)c(Cl)c2)cnc1S(=O)(=O)c1ccc(C)cc1 (centres unmarked) [Compound 252, 3,4-Dichloro-N-{1-[3-ethyl-2-(toluene-4-sulfonyl)-3H-imidazol-4-yl]-ethyl}-benzenesulfonamide] | 52.5% | – | 180 to 183 °C
CCn1c(C(C)NS(=O)(=O)c2ccc(Cl)c(Cl)c2)cnc1OCCCOC (centres unmarked) [Compound 239] | 95.9% | – | 151.5 to 152.5 °C
CCn1c(C(C)NS(=O)(=O)c2ccc3cc(C)ccc3c2)cnc1Oc1cccc(N2CCN(C)CC2)c1 (centres unmarked) [Compound 242] | 94.5% | – | 175 to 177 °C
CCn1c(C(C)NS(=O)(=O)c2ccc3c(Cl)cccc3c2)cnc1Oc1cccc(N2CCN(C)CC2)c1 (centres unmarked) [Compound 185] | 100% | 3.7 nM | 205.5 to 206 °C
CCn1c(C(C)NS(=O)(=O)c2ccc(Cl)c(Cl)c2)cnc1OCCCN1CCOCC1 (centres unmarked) [Compound 228] | 96% | – | 160.5 to 162.5 °C
CCn1c(C(C)NS(=O)(=O)c2ccc(Cl)c(Cl)c2)cnc1OC(C)C (centres unmarked) [Compound 222] | 87.6% | – | 178 to 180 °C
CCn1c(C(C)NS(=O)(=O)c2ccc(Cl)c(Cl)c2)cnc1Oc1cccc(N2CCCCC2)c1 (centres unmarked) [Compound 208] | 99.6% | ≤ 15 nM | 169.5 to 170.5 °C
CCn1c(C(C)NS(=O)(=O)c2ccc(Cl)c(Cl)c2)cnc1Oc1cccc(N2CCOCC2)c1 (centres unmarked) [Compound 190] | 101% | 10.9 nM | 167 to 169 °C
CCn1c(C(C)NS(=O)(=O)c2ccc3ccc(Cl)cc3c2)cnc1Oc1cccc(N2CCN(C)CC2)c1 (centres unmarked) [Compound 243] | 97.4% | – | 135 to 136 °C
CCn1c(C(Cc2ccccc2)NS(=O)(=O)c2ccc3c(Cl)cccc3c2)cnc1Oc1ccc(F)cc1 (centres unmarked) [Compound 194] | 93% | ≤ 70 nM | 172.5 to 174 °C
CCn1c(C(Cc2ccc(F)cc2)NS(=O)(=O)c2ccc3c(Cl)cccc3c2)cnc1Oc1ccc(F)cc1 (centres unmarked) [Compound 200] | 97.1% | 17 nM | 175 to 176 °C
C=CCCCOc1ncc(C(C)NS(=O)(=O)c2ccc(Cl)c(Cl)c2)n1CC (centres unmarked) [Compound 237] | 93.1% | – | 152.5 °C
CCc1c(C(C)NS(=O)(=O)c2ccc3c(Cl)cccc3c2)nn(C)c1Oc1ccc(C)cc1 (centres unmarked) [Compound 181] | – | – | 154.5 to 155.5 °C
CCn1c(C(C)NS(=O)(=O)c2cc(C)ccc2OC)cnc1Oc1ccc(C)cc1 (centres unmarked) [Compound 73] | 74.3% | – | –
CCn1c(C(C)NS(=O)(=O)CCc2cccc3ccccc23)cnc1Oc1ccc(C)cc1 (centres unmarked) [Compound 29] | 52.5% | – | –
CCn1c(C(C)NS(=O)(=O)c2ccc3nsnc3c2)cnc1Oc1ccc(C)cc1 (centres unmarked) [Compound 147] | 73.2% | – | –
CCn1c(C(C)NS(=O)(=O)c2c(C)cc(OC)c(C)c2C)cnc1Oc1ccc(C)cc1 (centres unmarked) [Compound 68] | 64.7% | – | –

More lines, now with the values ahead:

inhibition at 10 µM (human Edg-1 (S1P1)) | IC50 (human Edg-1 (S1P1)) | melting point | SMILES
99.6% | 49 nM | 185.5 to 187.5 °C | CCn1c(C(C)NS(=O)(=O)c2ccc(Cl)c(Cl)c2)cnc1Oc1ccc2ccncc2c1 (centres unmarked) [Compound 213]
98.9% | – | 122 to 124 °C | CCc1nc(Oc2ccc(F)cc2)n(CC)c1C(C)NS(=O)(=O)c1ccc(Cl)c(Cl)c1 (centres unmarked) [Compound 225]
52.6% | – | 101 to 102 °C | CCn1c(C(NS(=O)(=O)c2ccc(Cl)c(Cl)c2)C(C)C)cnc1Oc1ccc(F)cc1 (centres unmarked) [Compound 221]
97.3% | – | 145.5 to 146.5 °C | CCn1c(C(Cc2ccc(F)cc2)NS(=O)(=O)c2ccc(Cl)c(Cl)c2)cnc1Oc1ccc(F)cc1 (centres unmarked) [Compound 199]
97.8% | 10.3 nM | 171 to 172 °C | CCn1c(C(C)NS(=O)(=O)c2ccc(Cl)c(Cl)c2)cnc1Oc1cccc(N(C)C)c1 (centres unmarked) [Compound 198]
92.3% | – | 128.5 to 129.5 °C | CCn1c(Oc2ccc(F)cc2)nc(Br)c1C(C)NS(=O)(=O)c1ccc(Cl)c(Cl)c1 (centres unmarked) [Compound 232]
102% | 23.5 nM | 146.5 to 148 °C | CCn1c(C(C)NS(=O)(=O)c2ccc(Cl)c(Cl)c2)cnc1Oc1ccc(OC)cc1 (centres unmarked) [Compound 203]
83.2% | – | 195 to 196 °C | CCOc1ncc(C(C)NS(=O)(=O)c2ccc(Cl)c(Cl)c2)n1CC (centres unmarked) [Compound 219]
92% | – | 134 to 135 °C | CC(NS(=O)(=O)c1ccc2c(Cl)cccc2c1)c1cnc(Oc2ccc(F)cc2)n1C (centres unmarked) [Compound 212]
92.1% | – | 181 to 183 °C | CCCOc1ncc(C(C)NS(=O)(=O)c2ccc(Cl)c(Cl)c2)n1CC (centres unmarked) [Compound 223]
68.3% | – | 79 to 80 °C | CCCCCCC(NS(=O)(=O)c1ccc(Cl)c(Cl)c1)c1cnc(Oc2ccc(F)cc2)n1CC (centres unmarked) [Compound 220]
94.4% | – | 155.5 to 156.5 °C | CCn1c(C(Cc2ccc(Cl)cc2)NS(=O)(=O)c2ccc(Cl)c(Cl)c2)cnc1Oc1ccc(F)cc1 (centres unmarked) [Compound 205]
99.8% | ≤ 70 nM | 156 to 157 °C | CCn1c(C(C)NS(=O)(=O)c2ccc(Cl)c(Cl)c2)cnc1Oc1ccc(F)cc1 (centres unmarked) [Compound 186]
100% | – | 119.5 to 120.5 °C | CCn1c(Oc2ccc(F)cc2)nc(C)c1C(C)NS(=O)(=O)c1ccc(Cl)c(Cl)c1 (centres unmarked) [Compound 188, 3,4-Dichloro-N-{1-[3-ethyl-2-(4-fluorophenoxy)-5-methyl-3H-imidazol-4-yl]-ethyl}-benzenesulfonamide]
– | – | 137.5 to 138.5 °C | CCn1c(C(C)NS(=O)(=O)c2ccc3c(Cl)cccc3c2)nc(Cl)c1Oc1ccc(C)cc1 (centres unmarked) [Compound 182]
100% | – | 179 to 180 °C | CCn1c(C(C)NS(=O)(=O)c2ccc(Cl)c(Cl)c2)cnc1Oc1cc(C)nc(C)c1 (centres unmarked) [Compound 215]
90.7% | – | 102 to 103 °C | CCn1c(C(C)NS(=O)(=O)c2ccc(Cl)c(Cl)c2)cnc1OCc1ccccc1 (centres unmarked) [Compound 230]
98.6% | – | 114.5 to 115.5 °C | CCn1c(C(Cc2ccccc2)NS(=O)(=O)c2ccc(Cl)c(Cl)c2)cnc1Oc1ccc(F)cc1 (centres unmarked) [Compound 193]
96.8% | ≤ 70 nM | 213.5 to 215.5 °C | CCn1c(C(C)NS(=O)(=O)c2ccc(Cl)c(Cl)c2)cnc1Oc1cccc(NC(C)=O)c1 (centres unmarked) [Compound 236]
99% | ≤ 70 nM | 106 to 107 °C | CCn1c(C(C)NS(=O)(=O)c2ccc(Cl)c(Cl)c2)cnc1Oc1ccc(OCCN(C)C)cc1 (centres unmarked) [Compound 229]
– | – | 157.5 to 158 °C | CCn1c(C(NS(=O)(=O)c2ccc(Cl)c(Cl)c2)c2ccccc2)cnc1Oc1ccc(F)cc1 (centres unmarked) [Compound 201]
– | – | 199 to 200 °C | CCn1c(C(C)NS(=O)(=O)c2ccc(Cl)c(Cl)c2)cnc1OC (centres unmarked) [Compound 240]
– | – | 216.5 to 217.5 °C | CCn1c(Oc2ccc(F)cc2)nc(-c2ccccc2)c1C(C)NS(=O)(=O)c1ccc(Cl)c(Cl)c1 (centres unmarked) [Compound 227]
101% | 20.5 nM | – | CCn1c(C(C)NS(=O)(=O)c2ccc(Cl)c(Cl)c2)cnc1Oc1ccc2cc[nH]c2c1 (centres unmarked) [Compound 250, 3,4-Dichloro-N-{1-[3-ethyl-2-(1H-indol-6-yloxy)-3H-imidazol-4-yl]-ethyl}-benzenesulfonamide]
95.9% | – | – | CCn1c(Oc2ccc(C)cc2)cnc1C(C)NS(=O)(=O)c1ccc(Cl)c(Cl)c1 (centres unmarked) [Compound 179, 3,4-Dichloro-N-[1-(1-ethyl-5-(4-methylphenoxy)-1H-imidazol-2-yl)-ethyl]-benzenesulfonamide]
